Activity calls are given as the source filed them.
Key:
[1] = target: T1, Alkaline phosphatase, tissue-nonspecific isozyme (Homo sapiens, UniProt P05186); assay: TNAP enzyme activators, dose response, selectivity assay for mouse IAP activator project, biochemical, TNAP isozyme, mouse IAP uHTS hits (AID 488880); assay type: functional
T1 sequence (P05186 whole entry): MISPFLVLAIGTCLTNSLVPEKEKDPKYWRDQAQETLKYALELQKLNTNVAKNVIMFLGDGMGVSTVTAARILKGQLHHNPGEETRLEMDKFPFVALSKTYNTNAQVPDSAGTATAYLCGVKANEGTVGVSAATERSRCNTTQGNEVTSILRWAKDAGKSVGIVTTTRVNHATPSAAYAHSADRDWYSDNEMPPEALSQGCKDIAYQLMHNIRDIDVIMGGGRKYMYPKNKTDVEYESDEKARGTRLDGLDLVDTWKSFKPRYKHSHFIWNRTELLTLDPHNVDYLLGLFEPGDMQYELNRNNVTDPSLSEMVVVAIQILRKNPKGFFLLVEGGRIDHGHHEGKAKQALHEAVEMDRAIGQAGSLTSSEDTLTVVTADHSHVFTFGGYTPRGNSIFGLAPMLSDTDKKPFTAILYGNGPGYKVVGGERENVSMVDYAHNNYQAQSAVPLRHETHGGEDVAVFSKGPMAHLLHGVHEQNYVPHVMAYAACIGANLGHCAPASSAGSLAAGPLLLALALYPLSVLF

[2] = target: Intestinal-type alkaline phosphatase (Homo sapiens, UniProt P09923); assay: activation of human intestinal alkaline phosphatase – biochemical, dose response (AID 488873); assay type: functional
Chain of Intestinal-type alkaline phosphatase (Homo sapiens, UniProt P09923) (P09923 whole entry): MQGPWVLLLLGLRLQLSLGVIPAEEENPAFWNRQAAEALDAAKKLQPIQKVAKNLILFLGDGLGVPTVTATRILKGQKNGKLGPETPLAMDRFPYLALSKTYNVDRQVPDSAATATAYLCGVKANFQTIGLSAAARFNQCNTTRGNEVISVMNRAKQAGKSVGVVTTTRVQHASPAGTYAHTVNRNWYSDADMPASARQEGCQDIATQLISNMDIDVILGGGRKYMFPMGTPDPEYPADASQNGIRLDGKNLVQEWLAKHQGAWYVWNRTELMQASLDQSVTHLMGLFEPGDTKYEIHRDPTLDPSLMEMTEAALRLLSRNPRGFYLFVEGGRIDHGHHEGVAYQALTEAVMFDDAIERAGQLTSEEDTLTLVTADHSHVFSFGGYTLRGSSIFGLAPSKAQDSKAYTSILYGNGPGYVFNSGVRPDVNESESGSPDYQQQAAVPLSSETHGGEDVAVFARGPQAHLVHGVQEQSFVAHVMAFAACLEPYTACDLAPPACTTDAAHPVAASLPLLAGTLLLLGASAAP

[3] = target: Intestinal-type alkaline phosphatase (Mus musculus, UniProt P24822); assay: mouse intestinal alkaline phosphatase activators, dose response, biochemical, luminescence, uHTS hits (AID 488783); assay type: functional
Bcl-2-related protein A1 = target: T2, Bcl-2-related protein A1 (Mus musculus, UniProt Q07440); assay type: functional;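 further: confirmatory dose–response counterscreen on Bfl-1, used to check hits from a UBC13 polyubiquitin inhibitor campaign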
T2 sequence (Q07440 whole entry): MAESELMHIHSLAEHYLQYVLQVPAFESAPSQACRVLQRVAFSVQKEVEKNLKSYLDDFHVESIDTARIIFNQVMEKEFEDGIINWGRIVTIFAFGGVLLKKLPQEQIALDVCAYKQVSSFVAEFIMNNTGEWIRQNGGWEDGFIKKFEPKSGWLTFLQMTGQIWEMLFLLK

[4] = target: T3, Ubiquitin-conjugating enzyme E2 N (Homo sapiens, UniProt P61088); assay type: functional
T3 sequence (P61088 whole entry): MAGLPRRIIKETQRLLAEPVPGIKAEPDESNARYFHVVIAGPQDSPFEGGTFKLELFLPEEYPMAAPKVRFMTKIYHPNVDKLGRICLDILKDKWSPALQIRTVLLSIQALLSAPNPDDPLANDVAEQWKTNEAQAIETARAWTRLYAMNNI

[5] = target: T3, Ubiquitin-conjugating enzyme E2 N; assay type: functional; remark: listed apart in the source
[6] = mammalian cell cytotoxicity, dose response, cytotoxicity control, plate reader, cherry-pick samples (AID 504397); assay type: functional, cell-based
CAAX prenyl protease 2 [7] = target: T4, CAAX prenyl protease 2 (Saccharomyces cerevisiae S288c, UniProt Q03530); assay type: biochemical
T4 sequence (Q03530 whole entry): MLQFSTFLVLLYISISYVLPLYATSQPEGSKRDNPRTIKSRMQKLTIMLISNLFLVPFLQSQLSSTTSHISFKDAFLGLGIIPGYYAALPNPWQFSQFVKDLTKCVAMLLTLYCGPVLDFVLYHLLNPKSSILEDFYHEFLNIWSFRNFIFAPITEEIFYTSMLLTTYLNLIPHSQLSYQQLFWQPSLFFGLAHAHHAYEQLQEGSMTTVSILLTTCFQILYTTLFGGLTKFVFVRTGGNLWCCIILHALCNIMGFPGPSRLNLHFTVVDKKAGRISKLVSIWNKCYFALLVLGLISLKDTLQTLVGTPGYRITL

CAAX prenyl protease 2 [8] = target: T5, CAAX prenyl protease 2 (Homo sapiens, UniProt Q9Y256); assay: human Rce1 protease inhibitors, dose response, biochemical, yeast membranes, quenched-peptide fluorescence, cherry-pick (AID 588849)
T5 sequence (Q9Y256 whole entry): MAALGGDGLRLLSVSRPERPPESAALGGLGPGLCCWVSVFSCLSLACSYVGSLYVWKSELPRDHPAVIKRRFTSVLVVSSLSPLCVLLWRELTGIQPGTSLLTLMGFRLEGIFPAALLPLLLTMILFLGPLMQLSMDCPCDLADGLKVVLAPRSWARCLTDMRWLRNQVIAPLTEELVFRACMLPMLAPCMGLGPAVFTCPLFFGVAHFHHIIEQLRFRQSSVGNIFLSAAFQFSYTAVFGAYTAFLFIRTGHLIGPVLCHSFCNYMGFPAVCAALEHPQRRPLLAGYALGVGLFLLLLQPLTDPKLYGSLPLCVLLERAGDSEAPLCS

[9] = target: Peroxisome proliferator-activated receptor gamma/Nuclear receptor coactivator 2 (Homo sapiens, UniProt P37231); assay: (§1) TR-FRET dose response biochemical High Throughput Screening assay for agonists of the steroid receptor coactivator 2 (SRC-2) recruitment by the peroxisome proliferator-activated receptor gamma (PPAR gamma): non-selective agonists. [Related pubchem assays: 1297, 1032 ]; assay type: functional
Leucine aminopeptidase = target: T6, Leucine aminopeptidase (Plasmodium falciparum 3D7, UniProt Q8IL11); assay: P. falciparum M17LAP inhibitors, primary screen, biochemical, fluorogenic H-Leu-NHMec substrate, 1536-well (AID 1619); assay type: functional
T6 sequence (Q8IL11 whole entry): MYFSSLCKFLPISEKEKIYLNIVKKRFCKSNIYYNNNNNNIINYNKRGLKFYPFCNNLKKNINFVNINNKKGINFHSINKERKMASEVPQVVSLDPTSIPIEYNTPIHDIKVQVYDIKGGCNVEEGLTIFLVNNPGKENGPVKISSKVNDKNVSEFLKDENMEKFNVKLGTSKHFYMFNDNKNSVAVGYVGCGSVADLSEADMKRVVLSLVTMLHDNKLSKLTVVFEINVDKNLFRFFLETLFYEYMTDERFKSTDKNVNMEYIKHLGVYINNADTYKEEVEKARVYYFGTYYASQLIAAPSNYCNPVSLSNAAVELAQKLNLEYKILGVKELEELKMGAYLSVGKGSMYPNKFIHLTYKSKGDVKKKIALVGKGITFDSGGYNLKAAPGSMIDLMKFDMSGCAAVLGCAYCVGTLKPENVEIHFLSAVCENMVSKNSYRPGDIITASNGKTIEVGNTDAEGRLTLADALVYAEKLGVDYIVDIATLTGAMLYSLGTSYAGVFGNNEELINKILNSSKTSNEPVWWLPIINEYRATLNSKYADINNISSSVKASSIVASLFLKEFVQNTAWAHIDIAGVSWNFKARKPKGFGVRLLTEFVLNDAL

[10] = target: Peroxisome proliferator-activated receptor gamma/Nuclear receptor coactivator 3 (Homo sapiens, UniProt P37231); assay: as §1, with “3 (SRC-3)” for “2 (SRC-2)”, “1301 (Confirmation screen.), 1048 (Primary screen.)]” for “1297, 1032 ]”; assay type: functional
[11] = target: Peroxisome proliferator-activated receptor gamma/Nuclear receptor coactivator 1 (Homo sapiens, UniProt P37231); assay: as §1, with “1 (SRC-1)” for “2 (SRC-2)”, “assays (depositor defined):AID1300, AID1808, AID504735, AID631]” for “assays: 1297, 1032 ]”; assay type: protein assay
[12] = target: DNA dC->dU-editing enzyme APOBEC-3G (Homo sapiens, UniProt Q9HC16); assay: Dose Response confirmation of small molecule APOBEC3G DNA Deaminase Inhibitors via a fluorescence-based single-stranded DNA deaminase assay. [Related pubchem assays (depositor defined):AID493012, AID493028]; assay type: functional
[13] = inhibitors of firefly luciferase expression or activity, dose response, H4 neuroglioma cells, luminescence (AID 1990); assay type: functional, cell-based
[14] = target: T7, Voltage-gated N-type calcium channel alpha-1B subunit/Amyloid beta A4 precursor protein-binding family A member 1 (Homo sapiens, UniProt Q00975+Q02410); assay type: protein assay
T7 sequence (Q00975 whole entry): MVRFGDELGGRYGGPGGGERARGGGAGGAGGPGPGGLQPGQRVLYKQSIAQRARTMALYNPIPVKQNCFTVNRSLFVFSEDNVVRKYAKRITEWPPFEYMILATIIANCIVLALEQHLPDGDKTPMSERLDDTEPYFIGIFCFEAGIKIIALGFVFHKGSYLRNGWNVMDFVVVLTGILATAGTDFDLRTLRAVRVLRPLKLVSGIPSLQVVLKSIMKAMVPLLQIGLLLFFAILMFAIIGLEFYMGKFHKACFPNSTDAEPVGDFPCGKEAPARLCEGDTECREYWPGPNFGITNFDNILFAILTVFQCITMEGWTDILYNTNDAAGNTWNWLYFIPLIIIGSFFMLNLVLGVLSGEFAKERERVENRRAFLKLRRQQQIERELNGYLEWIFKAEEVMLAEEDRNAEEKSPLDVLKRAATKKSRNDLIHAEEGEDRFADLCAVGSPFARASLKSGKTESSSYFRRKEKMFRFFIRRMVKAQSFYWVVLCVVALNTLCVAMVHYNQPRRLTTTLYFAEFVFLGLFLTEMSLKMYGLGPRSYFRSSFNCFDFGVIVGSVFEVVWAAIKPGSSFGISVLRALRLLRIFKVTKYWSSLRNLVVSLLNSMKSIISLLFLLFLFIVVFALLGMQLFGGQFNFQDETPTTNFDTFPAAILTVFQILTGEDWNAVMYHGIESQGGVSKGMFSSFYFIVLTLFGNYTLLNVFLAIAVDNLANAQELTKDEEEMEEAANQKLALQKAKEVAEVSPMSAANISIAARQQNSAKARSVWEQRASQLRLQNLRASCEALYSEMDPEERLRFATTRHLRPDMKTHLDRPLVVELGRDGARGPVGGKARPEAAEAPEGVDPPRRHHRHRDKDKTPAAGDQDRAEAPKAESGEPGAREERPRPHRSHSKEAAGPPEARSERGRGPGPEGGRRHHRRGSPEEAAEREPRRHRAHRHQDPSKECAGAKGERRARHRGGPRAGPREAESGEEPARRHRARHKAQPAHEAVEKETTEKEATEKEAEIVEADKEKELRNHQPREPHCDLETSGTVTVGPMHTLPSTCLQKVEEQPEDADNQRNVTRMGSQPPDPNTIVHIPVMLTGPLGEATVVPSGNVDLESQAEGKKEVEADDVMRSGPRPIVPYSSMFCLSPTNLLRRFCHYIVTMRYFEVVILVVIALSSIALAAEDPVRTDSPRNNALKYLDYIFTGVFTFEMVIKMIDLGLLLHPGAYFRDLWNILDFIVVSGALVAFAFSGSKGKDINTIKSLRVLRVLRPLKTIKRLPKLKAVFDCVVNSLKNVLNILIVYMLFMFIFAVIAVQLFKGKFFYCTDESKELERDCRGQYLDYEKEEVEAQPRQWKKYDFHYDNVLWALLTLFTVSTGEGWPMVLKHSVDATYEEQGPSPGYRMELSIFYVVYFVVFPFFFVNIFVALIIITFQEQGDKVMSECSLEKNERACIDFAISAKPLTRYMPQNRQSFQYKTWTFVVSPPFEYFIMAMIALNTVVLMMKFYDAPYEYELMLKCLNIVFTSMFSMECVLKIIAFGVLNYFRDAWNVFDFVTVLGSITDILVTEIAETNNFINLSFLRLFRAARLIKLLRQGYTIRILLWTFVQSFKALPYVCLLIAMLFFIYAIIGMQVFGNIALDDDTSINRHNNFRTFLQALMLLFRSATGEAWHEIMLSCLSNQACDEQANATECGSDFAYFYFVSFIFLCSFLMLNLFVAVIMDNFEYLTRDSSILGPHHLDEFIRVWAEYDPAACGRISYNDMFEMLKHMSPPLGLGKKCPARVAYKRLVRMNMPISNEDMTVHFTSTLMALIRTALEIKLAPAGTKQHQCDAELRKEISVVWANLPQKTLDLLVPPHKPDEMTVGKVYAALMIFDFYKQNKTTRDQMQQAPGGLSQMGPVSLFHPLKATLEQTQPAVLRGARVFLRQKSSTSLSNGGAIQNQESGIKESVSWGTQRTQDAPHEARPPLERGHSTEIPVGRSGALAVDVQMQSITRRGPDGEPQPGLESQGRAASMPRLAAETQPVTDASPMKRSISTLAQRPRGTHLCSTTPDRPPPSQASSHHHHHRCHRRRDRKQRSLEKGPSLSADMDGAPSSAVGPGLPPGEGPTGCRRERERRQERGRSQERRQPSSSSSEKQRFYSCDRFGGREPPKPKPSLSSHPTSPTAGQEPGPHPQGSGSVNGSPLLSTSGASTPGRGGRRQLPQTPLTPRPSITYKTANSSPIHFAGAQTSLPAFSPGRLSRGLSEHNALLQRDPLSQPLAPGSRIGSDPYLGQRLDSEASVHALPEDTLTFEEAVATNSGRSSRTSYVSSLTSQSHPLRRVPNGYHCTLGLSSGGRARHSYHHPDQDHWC
T7 sequence (Q02410 whole entry): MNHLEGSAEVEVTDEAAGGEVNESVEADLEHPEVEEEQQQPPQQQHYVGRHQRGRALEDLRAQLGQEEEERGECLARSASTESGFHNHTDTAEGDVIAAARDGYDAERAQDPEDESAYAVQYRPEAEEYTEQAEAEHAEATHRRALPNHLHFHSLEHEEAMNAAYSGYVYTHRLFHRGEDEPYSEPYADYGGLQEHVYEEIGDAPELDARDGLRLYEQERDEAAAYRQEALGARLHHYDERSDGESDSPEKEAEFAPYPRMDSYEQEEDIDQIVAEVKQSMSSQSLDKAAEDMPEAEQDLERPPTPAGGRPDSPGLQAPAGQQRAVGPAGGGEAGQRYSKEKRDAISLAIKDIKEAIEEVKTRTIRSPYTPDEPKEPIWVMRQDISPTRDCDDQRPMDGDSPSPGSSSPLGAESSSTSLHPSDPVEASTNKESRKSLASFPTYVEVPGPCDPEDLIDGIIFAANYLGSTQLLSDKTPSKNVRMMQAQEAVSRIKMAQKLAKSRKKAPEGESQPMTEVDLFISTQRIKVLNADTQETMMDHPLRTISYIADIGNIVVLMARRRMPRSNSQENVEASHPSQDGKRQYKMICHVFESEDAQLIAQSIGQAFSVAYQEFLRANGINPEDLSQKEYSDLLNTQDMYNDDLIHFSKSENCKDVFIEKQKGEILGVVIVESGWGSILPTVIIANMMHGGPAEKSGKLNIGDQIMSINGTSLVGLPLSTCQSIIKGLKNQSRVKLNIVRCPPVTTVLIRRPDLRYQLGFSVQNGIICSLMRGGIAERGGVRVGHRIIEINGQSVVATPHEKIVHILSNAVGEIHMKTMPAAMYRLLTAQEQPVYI

[15] = Luminescence Cell-Based Dose Response HTS to Identify Inhibitors of 5'UTR Stem-Loop Driven Prion Protein mRNA Translation in H4 Neuroglioblastoma Cells. [Related pubchem assays: 1827 (Project Summary), 1813 (Primary HTS)]; assay type: functional
Hexokinase-1 = Hexokinase-1 (Homo sapiens, UniProt P19367); assay: hexokinase 1 activators, dose response, selectivity assay for HKDC1 activator project, biochemical (AID 504762); assay type: functional
Chain of Hexokinase-1 (P19367 whole entry): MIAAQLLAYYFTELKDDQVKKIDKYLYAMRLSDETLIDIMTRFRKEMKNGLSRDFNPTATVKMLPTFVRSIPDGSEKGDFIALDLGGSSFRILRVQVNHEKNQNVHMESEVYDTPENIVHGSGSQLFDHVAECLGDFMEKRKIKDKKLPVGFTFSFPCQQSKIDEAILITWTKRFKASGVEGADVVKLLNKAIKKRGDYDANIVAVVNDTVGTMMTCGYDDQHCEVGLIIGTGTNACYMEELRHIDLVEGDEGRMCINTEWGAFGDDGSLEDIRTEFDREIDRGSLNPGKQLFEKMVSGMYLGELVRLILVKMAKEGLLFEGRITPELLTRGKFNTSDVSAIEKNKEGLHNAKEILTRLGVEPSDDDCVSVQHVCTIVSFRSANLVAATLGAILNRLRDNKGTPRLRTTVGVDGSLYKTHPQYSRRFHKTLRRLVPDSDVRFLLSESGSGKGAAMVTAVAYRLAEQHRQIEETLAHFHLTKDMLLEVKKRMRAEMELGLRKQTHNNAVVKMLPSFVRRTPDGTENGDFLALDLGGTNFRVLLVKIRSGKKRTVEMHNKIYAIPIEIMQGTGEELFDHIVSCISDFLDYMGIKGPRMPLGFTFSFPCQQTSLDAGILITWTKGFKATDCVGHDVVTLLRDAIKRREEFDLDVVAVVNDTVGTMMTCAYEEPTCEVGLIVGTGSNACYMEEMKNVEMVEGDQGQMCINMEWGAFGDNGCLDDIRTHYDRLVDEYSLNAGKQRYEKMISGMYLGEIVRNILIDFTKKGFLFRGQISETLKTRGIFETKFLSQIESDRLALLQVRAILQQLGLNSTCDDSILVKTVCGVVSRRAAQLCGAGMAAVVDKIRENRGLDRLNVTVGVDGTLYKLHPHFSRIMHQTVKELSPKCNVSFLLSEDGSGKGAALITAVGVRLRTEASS

[16] = target: Eukaryotic translation initiation factor 4E (Mus musculus, UniProt P63073); assay: eIF4E–eIF4G protein interaction inhibitors, dose response, biochemical, TR-FRET (AID 855); assay type: functional;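 further: potency for disrupting eIF4E binding to eIF4GI seen as loss of FRET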
Chain of Eukaryotic translation initiation factor 4E (P63073 whole entry): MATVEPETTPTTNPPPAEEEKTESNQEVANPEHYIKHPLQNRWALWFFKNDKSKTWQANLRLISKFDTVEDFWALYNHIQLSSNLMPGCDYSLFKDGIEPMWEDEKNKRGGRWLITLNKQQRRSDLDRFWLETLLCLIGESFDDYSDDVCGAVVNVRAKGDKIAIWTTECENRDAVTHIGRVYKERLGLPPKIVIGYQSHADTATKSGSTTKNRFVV

[17] = target: T8, Mannose-6-phosphate isomerase (Homo sapiens, UniProt P34949); assay: PMI enzyme inhibitors, confirmation, biochemical, fluorescence intensity (AID 1535)
T8 sequence (P34949 whole entry): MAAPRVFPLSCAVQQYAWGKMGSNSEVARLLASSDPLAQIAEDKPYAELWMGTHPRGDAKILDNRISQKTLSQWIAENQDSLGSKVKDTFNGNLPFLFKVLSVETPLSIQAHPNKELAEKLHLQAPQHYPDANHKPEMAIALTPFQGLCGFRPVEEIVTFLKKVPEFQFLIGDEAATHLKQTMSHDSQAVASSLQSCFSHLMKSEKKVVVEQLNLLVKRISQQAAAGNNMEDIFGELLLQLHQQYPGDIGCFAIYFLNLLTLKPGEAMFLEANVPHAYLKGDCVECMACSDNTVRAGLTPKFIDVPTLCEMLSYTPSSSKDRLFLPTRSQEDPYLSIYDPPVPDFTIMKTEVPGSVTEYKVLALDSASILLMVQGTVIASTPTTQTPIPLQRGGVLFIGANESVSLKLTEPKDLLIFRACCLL

[18] = target: T7, Voltage-gated N-type calcium channel alpha-1B subunit/Amyloid beta A4 precursor protein-binding family A member 1; assay type: protein assay; remark: listed apart in the source
Hexokinase HKDC1 = target: T9, Hexokinase HKDC1 (Homo sapiens, UniProt Q2TB90); assay: HKDC1 hexokinase activators, dose response, biochemical, W721R variant (AID 504730); assay type: functional
T9 sequence (Q2TB90 whole entry): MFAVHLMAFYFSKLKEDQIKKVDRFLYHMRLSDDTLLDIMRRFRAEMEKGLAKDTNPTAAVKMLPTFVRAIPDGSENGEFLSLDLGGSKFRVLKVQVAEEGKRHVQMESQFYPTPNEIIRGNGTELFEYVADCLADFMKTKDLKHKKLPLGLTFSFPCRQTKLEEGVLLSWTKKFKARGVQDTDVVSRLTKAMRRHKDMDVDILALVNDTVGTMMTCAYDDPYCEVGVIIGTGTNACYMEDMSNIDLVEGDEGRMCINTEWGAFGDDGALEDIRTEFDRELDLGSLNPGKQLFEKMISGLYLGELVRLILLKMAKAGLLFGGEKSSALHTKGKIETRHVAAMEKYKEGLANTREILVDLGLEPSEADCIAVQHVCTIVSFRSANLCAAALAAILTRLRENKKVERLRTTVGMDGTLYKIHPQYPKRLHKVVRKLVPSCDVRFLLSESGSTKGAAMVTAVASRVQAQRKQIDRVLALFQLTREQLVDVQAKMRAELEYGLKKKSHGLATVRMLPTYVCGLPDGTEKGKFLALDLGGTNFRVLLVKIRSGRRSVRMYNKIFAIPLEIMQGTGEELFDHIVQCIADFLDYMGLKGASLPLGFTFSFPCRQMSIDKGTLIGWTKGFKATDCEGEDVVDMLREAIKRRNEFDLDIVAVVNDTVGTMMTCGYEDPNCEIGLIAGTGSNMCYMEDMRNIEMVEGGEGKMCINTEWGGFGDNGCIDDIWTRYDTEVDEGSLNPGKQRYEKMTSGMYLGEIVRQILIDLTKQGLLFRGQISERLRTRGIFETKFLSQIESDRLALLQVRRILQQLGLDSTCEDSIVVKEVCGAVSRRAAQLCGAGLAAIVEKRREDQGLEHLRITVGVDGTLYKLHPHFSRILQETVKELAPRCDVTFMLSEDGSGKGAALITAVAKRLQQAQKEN

[19] = inhibitors of SNCA 5'UTR-driven reporter translation, confirmation, H4 neuroglioma cells, luminescence (AID 1988); assay type: functional, cell-based
Phosphomannomutase 2 = target: T10, Phosphomannomutase 2 (Homo sapiens, UniProt O15305); assay: Counter screen SAR assay for PMM2 inhibitors via a fluorescence intensity assay. [Related pubchem assays (depositor defined):AID1545, AID1574]
T10 sequence (O15305 whole entry): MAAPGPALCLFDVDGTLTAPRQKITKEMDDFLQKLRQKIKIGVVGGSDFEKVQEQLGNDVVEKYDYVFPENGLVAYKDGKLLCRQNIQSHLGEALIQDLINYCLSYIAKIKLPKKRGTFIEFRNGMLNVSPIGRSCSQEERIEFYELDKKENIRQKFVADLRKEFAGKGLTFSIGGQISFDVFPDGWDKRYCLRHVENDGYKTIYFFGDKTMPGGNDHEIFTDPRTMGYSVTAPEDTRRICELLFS

## Cc1ccc(NC(=O)CCNS(=O)(=O)c2ccc3[nH]c(=O)oc3c2)cc1F
[1]
  EC50: > 100 µM (inactive)
[2]
  EC50: > 100 µM (inactive)
[3]
  EC50: 1.76 µM (active)

## CC(C)C[C@H](N)c1cn([C@@H](Cc2cc3ccccc3[nH]2)C(=O)N2CCNCC2)nn1
Bcl-2-related protein A1
  IC50: > 20 µM (inactive)
[4]
  IC50: 14 µM (active)
[5]
  IC50: 15.8 µM (active)

## Cc1cccc(OCCN2C(=O)C(=O)c3cc(C)ccc32)c1
[6]
  AC50: 73.6 µM (active)
CAAX prenyl protease 2 [7]
  AC50: 1.11 µM (active)
CAAX prenyl protease 2 [8]
  AC50: 18.1 µM (active)

## CCOC(=O)c1c(-c2cccs2)csc1NC(=O)CCCC(=O)O
[9]
  EC50: 39.6 µM (not active)
Leucine aminopeptidase
  IC50: 20.3 µM (active)
[10]
  EC50: > 79.4 µM (not active)
[11]
  EC50: 69.1 µM (inactive)

## Cc1ccc(/N=c2\ssnc2Cl)cc1
[12]
  IC50: 10.2 µM (active)
[13]
  EC50: > 120 µM (not active)
[14]
  IC50: 9.27 µM (active)
[15]
  EC50: > 120 µM (not active)
Hexokinase-1
  EC50: 53.2 µM (inactive)
[16]
  IC50: 35.4 µM (inactive)
[17]
  IC50: 18.6 µM (active)
[18]
  IC50: 2.85 µM (active)
Hexokinase HKDC1
  EC50: 59 µM (inactive)
[19]
  EC50: > 120 µM (not active)
Phosphomannomutase 2
  IC50: > 100 µM (inactive)

Source: ChEMBL document CHEMBL1201862, “PubChem BioAssay data set” (2004)
